Test system: Human L2987 lung carcinomas
Experiment: Antitumor testing, s.c. L2987 xenografts in nude mice
Type: in vivo
Details: athymic nude mice, s.c. L2987 tumors established at 100-200 mm^3; Compound I 100 mg/Kg daily; Erbitux 1 mg per mouse every three days, 5 doses; combination given essentially simultaneously
Method: Animals. […] They were fed food and water ad libitum. All studies involving these animals were conducted in accordance with NIH (Bethesda, Md.) and Bristol Myers-Squibb animal care and use guidelines.
Tumors. […] All efficacy testing involved tumors implanted s.c. in nude mice.

Cc1cc2c(F)c(Oc3ncnn4cc(OC[C@@H](C)OC(=O)[C@H](C)N)c(C)c34)ccc2[nH]1 [Compound I]
delay of tumor growth to target tumor size of 500 mm^3 compared to vehicle treated control group: ten

Source: patent US20060257400A1, “COMBINATION THERAPY” (Bristol-Myers Squibb Company, priority 2005, published 2006)
